Tests used:
Experiment in all cases: relative viability (nuclei count vs DMSO), 5 days (fraction); higher = more cells survive
Halofuginone + Dasatinib = compound: O=C(C[C@H]1NCCC[C@@H]1O)Cn1cnc2cc(Br)c(Cl)cc2c1=O (racemic) [Halofuginone] + Cc1nc(Nc2ncc(C(=O)Nc3c(C)cccc3Cl)s2)cc(N2CCN(CCO)CC2)n1 [Dasatinib] (partner 0.075 µM)
Outline: (§1)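 Dosing by pin tool came one day after lung cancer cell lines were seeded in 1536-well plates, using either one drug or a fixed anchor-drug dose plus five library-drug doses (not always all listed) in √10 steps. After 5 days, nuclei were counted on 4× images. Relative viability is treated-well nuclei count divided by vehicle-well nuclei count, and values are medians of duplicate plates.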

Halofuginone + Alpelisib = compound: O=C(C[C@H]1NCCC[C@@H]1O)Cn1cnc2cc(Br)c(Cl)cc2c1=O (racemic) [Halofuginone] + Cc1nc(NC(=O)N2CCC[C@H]2C(N)=O)sc1-c1ccnc(C(C)(C)C(F)(F)F)c1 [Alpelisib] (partner 2 µM)
Outline: as §1

Cediranib + Lapatinib = compound: COc1cc2c(Oc3ccc4[nH]c(C)cc4c3F)ncnc2cc1OCCCN1CCCC1 [Cediranib] + CS(=O)(=O)CCNCc1ccc(-c2ccc3ncnc(Nc4ccc(OCc5cccc(F)c5)c(Cl)c4)c3c2)o1 [Lapatinib] (partner 2 µM)
Outline: as §1

Cediranib + Palbociclib = compound: COc1cc2c(Oc3ccc4[nH]c(C)cc4c3F)ncnc2cc1OCCCN1CCCC1 [Cediranib] + CC(=O)c1c(C)c2cnc(Nc3ccc(N4CCNCC4)cn3)nc2n(C2CCCC2)c1=O [Palbociclib] (partner 0.5 µM)
Outline: as §1

| Cell Line | relative viability (Halofuginone + Dasatinib; first compound 0.001 µM) | relative viability (Halofuginone + Dasatinib; first compound 0.003162 µM) | relative viability (Halofuginone + Dasatinib; first compound 0.01 µM) | relative viability (Halofuginone + Dasatinib; first compound 0.03162 µM) | relative viability (Halofuginone + Dasatinib; first compound 0.1 µM) | relative viability (Halofuginone + Alpelisib; first compound 0.001 µM) | relative viability (Halofuginone + Alpelisib; first compound 0.003162 µM) | relative viability (Halofuginone + Alpelisib; first compound 0.01 µM) | relative viability (Halofuginone + Alpelisib; first compound 0.03162 µM) | relative viability (Halofuginone + Alpelisib; first compound 0.1 µM) | relative viability (Cediranib + Lapatinib; first compound 0.04 µM) | relative viability (Cediranib + Lapatinib; first compound 0.1265 µM) | relative viability (Cediranib + Lapatinib; first compound 0.4 µM) | relative viability (Cediranib + Lapatinib; first compound 1.265 µM) | relative viability (Cediranib + Lapatinib; first compound 4 µM) | relative viability (Cediranib + Palbociclib; first compound 0.04 µM) | relative viability (Cediranib + Palbociclib; first compound 0.1265 µM) | relative viability (Cediranib + Palbociclib; first compound 0.4 µM) | relative viability (Cediranib + Palbociclib; first compound 1.265 µM) | relative viability (Cediranib + Palbociclib; first compound 4 µM) |
| --- | --- | --- | --- | --- | --- | --- | --- | --- | --- | --- | --- | --- | --- | --- | --- | --- | --- | --- | --- | --- |
| NCI-H1792 | 0.973 | 0.791 | 0.844 | 0.76 | 0.607 | 0.795 | 0.724 | 0.702 | 0.662 | 0.686 | 0.792 | 0.628 | 0.863 | 0.875 | 0.735 | 0.599 | 0.607 | 0.584 | 0.739 | 0.682 |
| Calu-6 | – | – | – | – | – | 1.16 | 1.01 | 0.94 | 0.362 | 0.17 | 1.17 | 1.08 | 0.874 | 1.03 | 1.14 | – | – | – | – | – |
| LCLC-103H | 0.551 | 0.423 | 0.472 | 0.48 | 0.388 | 1.09 | 1.02 | 0.915 | 0.954 | 0.956 | – | – | – | – | – | 0.494 | 0.47 | 0.511 | 0.469 | 0.521 |
| NCI-H1623 | 0.588 | 0.43 | 0.523 | 0.468 | 0.394 | – | – | – | – | – | – | – | – | – | – | – | – | – | – | – |
| NCI-H1299 | – | – | – | – | – | 1.04 | 1.09 | 1.02 | 1.01 | 1.04 | 1.02 | 0.958 | 0.995 | 0.933 | 0.983 | – | – | – | – | – |
| ChaGo-K-1 | 0.502 | 0.602 | 0.607 | 0.622 | 0.6 | – | – | – | – | – | – | – | – | – | – | 0.979 | 0.922 | 0.961 | 0.996 | 0.986 |
| NCI-H1703 | – | – | – | – | – | 0.334 | 0.398 | 0.239 | 0.27 | 0.165 | 1.36 | 1.07 | 0.361 | 0.354 | 0.341 | – | – | – | – | – |
| NCI-H522 | 0.894 | 0.863 | 1.06 | 0.806 | 0.881 | – | – | – | – | – | – | – | – | – | – | 1.04 | 0.899 | 0.891 | 0.998 | 1.07 |
| IA-LM | – | – | – | – | – | 0.829 | 0.982 | 0.664 | 0.606 | 0.161 | 0.933 | 0.938 | 0.673 | 0.732 | 0.794 | – | – | – | – | – |
| SW 900 | 1 | 0.677 | 0.555 | 0.616 | 0.163 | – | – | – | – | – | – | – | – | – | – | 0.569 | 0.677 | 0.552 | 0.575 | 0.594 |
| NCI-H1563 | 0.477 | 0.432 | 0.418 | 0.487 | 0.408 | 0.874 | 0.935 | 0.851 | 0.633 | 0.508 | 0.89 | 0.66 | 0.935 | 0.822 | 0.78 | – | – | – | – | – |
| NCI-H441 | 0.654 | 0.576 | 0.668 | 0.459 | 0.237 | 0.602 | 0.605 | 0.623 | 0.664 | 0.262 | – | – | – | – | – | 0.202 | 0.258 | 0.22 | 0.205 | 0.275 |
| NCI-H2342 | 0.302 | 0.326 | 0.309 | 0.326 | 0.378 | – | – | – | – | – | – | – | – | – | – | 0.562 | 0.52 | 0.451 | 0.534 | 0.479 |
